Measurements taken from US20220175693A1, “DIETARY SUPPLEMENT COMPRISING LUTEIN FOR TELOMERE PROTECTION, AND METHOD FOR PRODUCTION THEREOF” (BIOGEN EXTRACTS PRIVATE LIMITED, priority 2019, published 2022).

Legend:
[1] = tested on: human adult primary fibroblast cells; experiment: Telomere length by Telomere Analysis Technology (HT Q-FISH) and telomere shortening rate; format: cell-based
Source text: A high-throughput (HT) Q-FISH technique was used. This method is based on a quantitative fluorescence in-situ hybridization method modified for cells in interphase2. In brief, telomeres are hybridized with a fluorescent Peptide Nucleic Acid probe (PNA) that recognizes three telomere repeats. The images of the nuclei and telomeres are captured by a high-content screen system. The intensity of the fluorescent signal from the telomeric PNA probes that hybridize to a given telomere is proportional to the length of that telomere. The intensities of fluorescence are translated to base pairs through a standard regression curve which is generated using control cell lines with known telomere length.
(§1) Sample Preparation and HT Q-FISH: On processing day, the samples and control cell lines frozen in liquid nitrogen are thawed at 37° C. and cell counts and cellular viability are determined. Aliquots with viability lower than 60% are considered below our QC standards and are not further analyzed. Cells are seeded in clear bottom black-walled 384-well plates at 15,000 cells per well in 5 replicates for each sample and 8 replicates for each control cell line.
Cells are fixed with methanol/acetic acid (3/1, vol/vol). Once these cells have fixed onto the plate, they are treated with pepsin to digest the cytoplasm and the nuclei are processed for in situ hybridization with the PNA probe. After several washing steps following standard DAPI incubation for DNA staining, the wells are filled up with mounting medium and the plate is stored overnight at 4° C.
HT Microscopy: Quantitative image acquisition and analysis is performed on a High Content Screening Opera System. Images are captured, using a 40×0.95 NA water immersion objective. UV and 488 nm excitation wavelengths are used to detect the DAPI and A488 signals respectively. With constant exposure settings, 15 independent images are captured at different positions for each well. Next, the nuclei images are used to define the region of interest for each cell, measuring telomere fluorescence intensity of the A488 image in all of them. The results of intensity for each foci are exported to the Columbus 2.4 software. Telomere length distribution and median telomere length are calculated with Life Length's proprietary program.
Median telomere length, 20th percentile telomere length, percentage of short telomeres and the coefficients of variation for each set of samples. The percentage of short telomeres is defined as the percentage of those below 3 Kbp (<3 Kbp). As mentioned earlier, measurements in five replicates per sample were performed.
For TAT analysis, data were grouped by condition (Ctrl, H2O2, LUT10, LUT5, LUT1, LUT10+H2O2, LUT5+H2O2, LUT1+H2O2) and time point of treatment (0, 4, and 8 weeks).
Due to the fact that DNA replication during the cell cycle causes of telomere shortening, the telomere length measurements performed were normalized by the total number of population doubling (cell replication) in each condition and week.
Telomere shortening rate was analysed, Median of telomere length (initial-final)/Population Doubling, at the defined time points and treatments, FIG. 8.
Graph of telomere length vs Population doubling at different treatments. Slope of regression line in each condition, represents the telomere shortening rate. Y=aX+b; a=slope andbb=y intercept, FIG. 9.

[2] = tested on: human adult primary fibroblast cells; experiment: Cell count and viability of samples after thawing (Tripan-Blue exclusion); format: cell-based
Protocol: as §1, with “line. Cell count: An automated cell counter is used to determine the total number of cells in the vials. A minimum of 100.000 cells are needed to perform TAT. Cell viability by Tripan-Blue exclusion method. The exclusion criteria currently in place will reject aliquots with less than 60% viable cells.” for “line.”

[3] = Lutein 1 μg/ml + 10 μM H2O2, week 4 (P4)
[4] = Lutein 1 μg/ml + 10 μM H2O2, week 8 (P8)
[5] = Lutein 1 μg/ml, standard culture, week 4 (P4)
[6] = Lutein 1 μg/ml, standard culture, week 8 (P8)
[7] = Lutein 5 μg/ml + 10 μM H2O2, week 4 (P4)
[8] = Lutein 5 μg/ml + 10 μM H2O2, week 8 (P8)
[9] = Lutein 5 μg/ml, standard culture, week 4 (P4)
[10] = Lutein 5 μg/ml, standard culture, week 8 (P8)
[11] = Lutein 10 μg/ml + 10 μM H2O2, week 4 (P4)
[12] = Lutein 10 μg/ml + 10 μM H2O2, week 8 (P8)
[13] = Lutein 10 μg/ml, standard culture, week 4 (P4)
[14] = Lutein 10 μg/ml, standard culture, week 8 (P8)

CC1=C[C@H](O)CC(C)(C)[C@H]1/C=C/C(C)=C/C=C/C(C)=C/C=C/C=C(C)/C=C/C=C(C)/C=C/C1=C(C)C[C@@H](O)CC1(C)C [Lutein]
Telomere shortening rate versus control ([1]; Lutein 1 μg/ml (LUT1), standard conditions, 8 weeks): significant increase | Median Telomere Length (Table 7A) ([1]; Lutein 1 μg/ml + 10 μM H2O2, week 4): 5980 bp | 20th Percentile Length (telomere, TAT) [1, 3]: 3381 base pairs | Median Length (telomere, TAT) [1, 3]: 5997 base pairs | Telomere shortening rate (Median of telomere length (initial-final)/Population Doubling) [1, 3]: 111 bp/PD | Telomeres <3 Kbp (percentage of short telomeres) [1, 3]: 16.72% | Median Telomere Length (Table 7A) ([1]; Lutein 1 μg/ml + 10 μM H2O2, week 8): 6045 bp | 20th Percentile Length (telomere, TAT) [1, 4]: 2848 base pairs | Median Length (telomere, TAT) [1, 4]: 6037 base pairs | Telomere shortening rate (Median of telomere length (initial-final)/Population Doubling) [1, 4]: 63 bp/PD | Telomeres <3 Kbp (percentage of short telomeres) [1, 4]: 21.14% | Slope (Telomere Shortening Rate) of regression line, telomere length vs Population doubling ([1]; Lutein 1 μg/ml + 10 μM H2O2, weeks 0-8): y = −66.365x + 7187.3 | Median Telomere Length (Table 7A) ([1]; Lutein 1 μg/ml, standard culture, week 4): 5984 bp | 20th Percentile Length (telomere, TAT) [1, 5]: 3351 base pairs | Median Length (telomere, TAT) [1, 5]: 5977 base pairs | Telomere shortening rate (Median of telomere length (initial-final)/Population Doubling) [1, 5]: 100 bp/PD | Telomeres <3 Kbp (percentage of short telomeres) [1, 5]: 16.87% | Median Telomere Length (Table 7A) ([1]; Lutein 1 μg/ml, standard culture, week 8): 6071 bp | 20th Percentile Length (telomere, TAT) [1, 6]: 2848 base pairs | Median Length (telomere, TAT) [1, 6]: 6077 base pairs | Telomere shortening rate (Median of telomere length (initial-final)/Population Doubling) [1, 6]: 53 bp/PD | Telomeres <3 Kbp (percentage of short telomeres) [1, 6]: 21.29% | Slope (Telomere Shortening Rate) of regression line, telomere length vs Population doubling ([1]; Lutein 1 μg/ml, standard culture, weeks 0-8): y = −55.261x + 7163.8 | Median Telomere Length (Table 7A) ([1]; Lutein 5 μg/ml + 10 μM H2O2, week 4): 6085 bp | 20th Percentile Length (telomere, TAT) [1, 7]: 3351 base pairs | Median Length (telomere, TAT) [1, 7]: 6077 base pairs | Telomere shortening rate (Median of telomere length (initial-final)/Population Doubling) [1, 7]: 93 bp/PD | Telomeres <3 Kbp (percentage of short telomeres) [1, 7]: 16.97% | Median Telomere Length (Table 7A) ([1]; Lutein 5 μg/ml + 10 μM H2O2, week 8): 5980 bp | 20th Percentile Length (telomere, TAT) [1, 8]: 2977 base pairs | Median Length (telomere, TAT) [1, 8]: 5977 base pairs | Telomere shortening rate (Median of telomere length (initial-final)/Population Doubling) [1, 8]: 59 bp/PD | Telomeres <3 Kbp (percentage of short telomeres) [1, 8]: 20.09% | Slope (Telomere Shortening Rate) of regression line, telomere length vs Population doubling ([1]; Lutein 5 μg/ml + 10 μM H2O2, weeks 0-8): y = −61.587x + 7222 | Median Telomere Length (Table 7A) ([1]; Lutein 5 μg/ml, standard culture, week 4): 6340 bp | 20th Percentile Length (telomere, TAT) [1, 9]: 3104 base pairs | Median Length (telomere, TAT) [1, 9]: 6349 base pairs | Telomere shortening rate (Median of telomere length (initial-final)/Population Doubling) [1, 9]: 80 bp/PD | Telomeres <3 Kbp (percentage of short telomeres) [1, 9]: 18.98% | Median Telomere Length (Table 7A) ([1]; Lutein 5 μg/ml, standard culture, week 8): 6177 bp | 20th Percentile Length (telomere, TAT) [1, 10]: 2945 base pairs | Median Length (telomere, TAT) [1, 10]: 6037 base pairs | Telomere shortening rate (Median of telomere length (initial-final)/Population Doubling) [1, 10]: 55 bp/PD | Telomeres <3 Kbp (percentage of short telomeres) [1, 10]: 20.51% | Slope (Telomere Shortening Rate) of regression line, telomere length vs Population doubling ([1]; Lutein 5 μg/ml, standard culture, weeks 0-8): y = −56.796x + 7261.1 | Median Telomere Length (Table 7A) ([1]; Lutein 10 μg/ml + 10 μM H2O2, week 4): 5804 bp | 20th Percentile Length (telomere, TAT) [1, 11]: 3073 base pairs | Median Length (telomere, TAT) [1, 11]: 5772 base pairs | Telomere shortening rate (Median of telomere length (initial-final)/Population Doubling) [1, 11]: 118 bp/PD | Telomeres <3 Kbp (percentage of short telomeres) [1, 11]: 19.10% | Median Telomere Length (Table 7A) ([1]; Lutein 10 μg/ml + 10 μM H2O2, week 8): 5972 bp | 20th Percentile Length (telomere, TAT) [1, 12]: 2977 base pairs | Median Length (telomere, TAT) [1, 12]: 5977 base pairs | Telomere shortening rate (Median of telomere length (initial-final)/Population Doubling) [1, 12]: 66 bp/PD | Telomeres <3 Kbp (percentage of short telomeres) [1, 12]: 20.09% | Slope (Telomere Shortening Rate) of regression line, telomere length vs Population doubling ([1]; Lutein 10 μg/ml + 10 μM H2O2, weeks 0-8): y = −71.479x + 7181.9 | Median Telomere Length (Table 7A) ([1]; Lutein 10 μg/ml, standard culture, week 4): 6272 bp | 20th Percentile Length (telomere, TAT) [1, 13]: 3198 base pairs | Median Length (telomere, TAT) [1, 13]: 6330 base pairs | Telomere shortening rate (Median of telomere length (initial-final)/Population Doubling) [1, 13]: 81 bp/PD | Telomeres <3 Kbp (percentage of short telomeres) [1, 13]: 18.48% | Median Telomere Length (Table 7A) ([1]; Lutein 10 μg/ml, standard culture, week 8): 6008 bp | 20th Percentile Length (telomere, TAT) [1, 14]: 2977 base pairs | Median Length (telomere, TAT) [1, 14]: 5997 base pairs | Telomere shortening rate (Median of telomere length (initial-final)/Population Doubling) [1, 14]: 56 bp/PD | Telomeres <3 Kbp (percentage of short telomeres) [1, 14]: 20.21% | Slope (Telomere Shortening Rate) of regression line, telomere length vs Population doubling ([1]; Lutein 10 μg/ml, standard culture, weeks 0-8): y = −57.039x + 7250 | Telomere shortening rate compared to control (H2O2) ([1]; Lutein 10, 5 and 1 μg/ml + 10 μM H2O2, after 8 passages): significant difference | Effect on telomere length erosion in vitro ([1]; oxidative stress conditions, after 8 passages): significant protective effect | Telomere analysis versus control, other differences ([1]; treated groups in standard conditions (LUT10, LUT5, LUT1), 8 weeks): No other significant differences | Viability of sample after thawing [2, 3]: 87% | Viability of sample after thawing [2, 4]: 87% | Viability of sample after thawing [2, 5]: 80% | Viability of sample after thawing [2, 6]: 91% | Viability of sample after thawing [2, 7]: 81% | Viability of sample after thawing [2, 8]: 76% | Viability of sample after thawing [2, 9]: 96% | Viability of sample after thawing [2, 10]: 91% | Viability of sample after thawing [2, 11]: 96% | Viability of sample after thawing [2, 12]: 92% | Viability of sample after thawing [2, 13]: 96% | Viability of sample after thawing [2, 14]: 87%
